Measurements as given in paper PMC4941420, “A Rational Approach for the Identification of Non-Hydroxamate HDAC6-Selective Inhibitors” (Scientific Reports, 2016).

Key:
[1] = tested on: class I HDACs (HeLa nuclear extracts); assay: HDAC activity of HeLa nuclear extracts (Fluor de Lys); assay type: biochemical, human
HDAC6 [2] = target: T1, HDAC6 (Homo sapiens, UniProt Q9UBN7); assay: In vitro enzymatic assay HDAC6 (Fluor de Lys); assay type: biochemical; conditions: for HDAC6 % of inhibition at 100 µM / inhibition at 100 µM: mean ± SD (n=3); for inhibition at 100 µM: read-out: HDAC6 % of inhibition at 100 µM; for IC50: average of at least 2 independent experiments in duplicates ± SEM
T1 construct: purchased Sigma Aldrich or Reaction Biology Corporation
T1 sequence (Q9UBN7 1-1215): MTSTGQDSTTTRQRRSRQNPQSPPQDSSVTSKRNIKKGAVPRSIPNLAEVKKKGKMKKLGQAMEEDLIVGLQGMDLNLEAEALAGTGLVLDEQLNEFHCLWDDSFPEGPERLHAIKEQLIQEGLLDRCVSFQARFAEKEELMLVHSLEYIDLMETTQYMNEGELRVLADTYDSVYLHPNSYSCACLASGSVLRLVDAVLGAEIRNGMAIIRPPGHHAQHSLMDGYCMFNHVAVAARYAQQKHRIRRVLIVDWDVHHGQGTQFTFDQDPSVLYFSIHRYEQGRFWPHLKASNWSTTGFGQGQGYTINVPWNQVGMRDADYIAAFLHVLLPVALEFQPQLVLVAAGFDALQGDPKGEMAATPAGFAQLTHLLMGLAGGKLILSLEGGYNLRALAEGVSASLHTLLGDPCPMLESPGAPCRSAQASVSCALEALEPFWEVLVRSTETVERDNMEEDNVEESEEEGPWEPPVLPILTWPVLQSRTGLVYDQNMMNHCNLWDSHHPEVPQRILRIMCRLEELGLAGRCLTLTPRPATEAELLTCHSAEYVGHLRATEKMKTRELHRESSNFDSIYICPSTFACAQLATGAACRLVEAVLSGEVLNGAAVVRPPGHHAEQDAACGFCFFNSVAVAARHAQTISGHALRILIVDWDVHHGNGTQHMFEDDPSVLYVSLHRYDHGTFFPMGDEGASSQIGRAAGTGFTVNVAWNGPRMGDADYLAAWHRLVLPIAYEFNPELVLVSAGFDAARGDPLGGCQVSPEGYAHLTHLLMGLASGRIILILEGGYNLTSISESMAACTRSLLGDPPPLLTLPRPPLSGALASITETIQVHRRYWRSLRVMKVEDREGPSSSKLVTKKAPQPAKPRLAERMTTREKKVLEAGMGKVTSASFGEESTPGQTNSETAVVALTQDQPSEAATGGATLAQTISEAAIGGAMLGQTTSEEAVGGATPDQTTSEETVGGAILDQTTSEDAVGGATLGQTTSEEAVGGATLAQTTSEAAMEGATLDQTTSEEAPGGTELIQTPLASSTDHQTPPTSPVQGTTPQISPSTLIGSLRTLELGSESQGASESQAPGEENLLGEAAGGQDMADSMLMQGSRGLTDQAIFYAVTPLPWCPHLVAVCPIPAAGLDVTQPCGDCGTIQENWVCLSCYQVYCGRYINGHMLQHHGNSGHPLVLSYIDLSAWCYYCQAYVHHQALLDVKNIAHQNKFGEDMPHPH

HDAC4 = target: T2, HDAC4 (Homo sapiens, UniProt P56524); assay: In vitro enzymatic assay HDAC4 (Fluor de Lys); assay type: biochemical; conditions: average of at least 2 independent experiments in duplicates ± SEM
T2 construct: purchased Sigma Aldrich or Reaction Biology Corporation

HDAC2 = target: T3, HDAC2 (Homo sapiens, UniProt Q92769); assay: In vitro enzymatic assay HDAC2 (Fluor de Lys); assay type: biochemical; conditions: average of at least 2 independent experiments in duplicates ± SEM
T3 construct: purchased Sigma Aldrich or Reaction Biology Corporation

HDAC8 = target: T4, HDAC8 (Homo sapiens, UniProt Q9BY41); assay: In vitro enzymatic assay HDAC8 (Fluor de Lys); assay type: biochemical; conditions: average of at least 2 independent experiments in duplicates ± SEM
T4 construct: purchased Sigma Aldrich or Reaction Biology Corporation
T4 sequence (Q9BY41 1-377): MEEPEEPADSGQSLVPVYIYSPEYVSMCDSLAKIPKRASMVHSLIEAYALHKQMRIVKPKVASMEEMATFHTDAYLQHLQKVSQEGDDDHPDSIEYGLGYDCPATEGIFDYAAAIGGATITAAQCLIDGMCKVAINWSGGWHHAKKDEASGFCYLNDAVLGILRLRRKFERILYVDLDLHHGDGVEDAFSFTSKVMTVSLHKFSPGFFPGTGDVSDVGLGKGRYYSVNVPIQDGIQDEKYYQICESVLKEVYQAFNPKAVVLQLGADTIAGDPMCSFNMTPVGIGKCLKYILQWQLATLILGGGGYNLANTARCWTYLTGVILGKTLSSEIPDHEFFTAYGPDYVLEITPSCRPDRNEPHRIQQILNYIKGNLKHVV

[3] = Solubility remarks during testing; assay type: physicochemical; conditions: tested at 100 µM in HDAC assay buffer
HDAC6 [4] = assay: HDAC ChEMBL dataset / literature, enzymatic IC50 HDAC6; assay type: biochemical; conditions: ratio of ChEMBL IC50 values
[5] = 100 μM, average of at least 3 independent experiments in duplicates (Table 1)

T3 sequence (Q92769 whole entry): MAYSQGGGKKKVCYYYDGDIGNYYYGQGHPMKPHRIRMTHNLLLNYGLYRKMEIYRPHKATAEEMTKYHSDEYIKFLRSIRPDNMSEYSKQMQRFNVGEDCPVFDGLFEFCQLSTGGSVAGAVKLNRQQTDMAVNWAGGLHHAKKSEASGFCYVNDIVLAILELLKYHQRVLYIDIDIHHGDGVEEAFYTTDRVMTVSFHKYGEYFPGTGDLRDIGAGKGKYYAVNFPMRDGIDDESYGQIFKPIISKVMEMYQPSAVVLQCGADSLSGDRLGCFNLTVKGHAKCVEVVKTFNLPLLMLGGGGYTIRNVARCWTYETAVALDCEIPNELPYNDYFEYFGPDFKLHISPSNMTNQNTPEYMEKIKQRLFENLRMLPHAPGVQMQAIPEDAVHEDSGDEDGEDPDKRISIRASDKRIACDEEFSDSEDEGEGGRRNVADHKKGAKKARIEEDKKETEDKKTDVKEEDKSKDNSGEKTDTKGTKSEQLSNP
T2 sequence (P56524 whole entry): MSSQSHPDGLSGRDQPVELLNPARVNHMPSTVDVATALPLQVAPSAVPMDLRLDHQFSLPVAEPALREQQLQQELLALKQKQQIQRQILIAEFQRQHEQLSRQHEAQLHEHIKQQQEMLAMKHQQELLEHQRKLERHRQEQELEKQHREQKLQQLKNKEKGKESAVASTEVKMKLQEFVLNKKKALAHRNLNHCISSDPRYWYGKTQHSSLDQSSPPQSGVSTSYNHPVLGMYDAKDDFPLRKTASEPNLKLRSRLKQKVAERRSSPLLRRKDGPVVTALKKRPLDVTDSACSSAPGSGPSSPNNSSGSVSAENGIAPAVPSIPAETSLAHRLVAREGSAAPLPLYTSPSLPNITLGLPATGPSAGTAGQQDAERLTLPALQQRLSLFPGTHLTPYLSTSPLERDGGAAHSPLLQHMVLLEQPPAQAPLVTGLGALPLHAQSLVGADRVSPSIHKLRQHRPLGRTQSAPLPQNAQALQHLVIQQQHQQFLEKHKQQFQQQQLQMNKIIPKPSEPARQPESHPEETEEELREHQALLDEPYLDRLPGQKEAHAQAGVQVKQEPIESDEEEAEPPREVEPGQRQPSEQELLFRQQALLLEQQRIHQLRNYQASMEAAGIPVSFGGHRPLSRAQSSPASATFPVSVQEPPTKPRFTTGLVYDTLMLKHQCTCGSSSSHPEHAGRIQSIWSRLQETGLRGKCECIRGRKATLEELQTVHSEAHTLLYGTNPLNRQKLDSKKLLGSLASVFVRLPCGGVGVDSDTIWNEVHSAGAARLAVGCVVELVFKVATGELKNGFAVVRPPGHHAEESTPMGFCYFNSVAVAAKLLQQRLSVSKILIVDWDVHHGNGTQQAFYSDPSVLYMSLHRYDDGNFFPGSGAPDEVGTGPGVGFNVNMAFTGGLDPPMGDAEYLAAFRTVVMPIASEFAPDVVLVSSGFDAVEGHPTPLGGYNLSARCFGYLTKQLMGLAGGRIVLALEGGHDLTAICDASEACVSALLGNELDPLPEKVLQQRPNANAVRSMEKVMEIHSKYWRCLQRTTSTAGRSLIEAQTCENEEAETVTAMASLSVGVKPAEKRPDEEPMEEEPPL

COc1ccccc1OCc1ccc(C(=O)NN)o1 [AK-15]
HeLa % of inhibition at 100 μM ([1]; 100 µM, mean ± SD (n=3) (Table S6)): -2.6 ± 3.0% | HDAC6 % of inhibition at 100 µM (HDAC6 [2]): 42.1 ± 23.0%

CCOc1ccc(OCc2ccc(C(=O)NN)o2)cc1 [AK-16]
HDAC6 % of inhibition at 100 µM (HDAC6 [2]): 36.9 ± 11.3%

CCOc1ccc(OCc2cccc(C(=O)NN)c2)cc1 [AK-17]
HDAC6 % of inhibition at 100 µM (HDAC6 [2]): 35.5 ± 10.5%

NNC(=O)c1ccc(COc2ccccc2Br)cc1 [AK-18]
HeLa % of inhibition at 100 μM [1, 5]: 0.4 ± 3.9% | IC50 (HDAC4): > 300 µM | inhibition at 100 µM (HDAC6 [2]): 69 ± 2.4% | IC50 (HDAC6 [2]): 16.4 ± 1.1 µM | IC50 (HDAC2): > 1000 µM | IC50 (HDAC8): > 300 µM

Cc1nnn(C23CC4CC(CC(C(=O)NN)(C4)C2)C3)n1 [AK-19]
HDAC6 % of inhibition at 100 µM (HDAC6 [2]): 18.1 ± 4.0%

NNC(=O)c1cc(Br)cs1 [AK-20]
HDAC6 % of inhibition at 100 µM (HDAC6 [2]): 22.3 ± 8.7%

NNC(=O)c1ccc(Cn2cc(Br)cn2)cc1 [AK-21]
HeLa % of inhibition at 100 μM [1, 5]: 14.7 ± 11.6% | IC50 (HDAC4): > 300 µM | inhibition at 100 µM (HDAC6 [2]): 67.9 ± 7.8% | IC50 (HDAC6 [2]): 30.9 ± 2.1 µM | IC50 (HDAC2): 201.7 ± 1.9 µM | IC50 (HDAC8): 74.9 ± 0.8 µM

NNC(=O)c1cccc(COc2ccccc2Br)c1 [AK-22]
HDAC6 % of inhibition at 100 µM (HDAC6 [2]): 25.4 ± 9.7%

CC(C)(C)C1CCC(C(=O)NN)CC1 (stereo not shown) [AK-23]
HDAC6 % of inhibition at 100 µM (HDAC6 [2]): 20.2 ± 10.9%

NNC(=O)c1ccc(Cn2cc(Cl)cn2)cc1 [AK-24]
HeLa % of inhibition at 100 μM [1, 5]: 33.3 ± 5.4% | IC50 (HDAC4): > 300 µM | inhibition at 100 µM (HDAC6 [2]): 63.1 ± 12.2% | IC50 (HDAC6 [2]): 74.9 ± 5.2 µM | IC50 (HDAC2): > 200 µM | IC50 (HDAC8): 86.9 ± 0.7 µM

NNC(=O)c1ccc(COc2ccc(Cl)cc2Cl)o1 [AK-25]
HDAC6 % of inhibition at 100 µM (HDAC6 [2]): 29.1 ± 10.3%

NS(=O)(=O)c1ccc(N2N=C(C(F)(F)F)/C(=C/c3ccc(-c4ccc(Cl)c(Cl)c4)o3)C2=O)cc1 [AN-1]
HDAC6 % of inhibition at 100 µM (HDAC6 [2]): -43.0 ± 11.8%

COc1cc(/C=N/NC(N)=S)ccc1OCC(=O)Nc1ccc(Br)c(Cl)c1 [AN-2]
HDAC6 % of inhibition at 100 µM (HDAC6 [2]): 4.9 ± 8.2% Self-fluorescence

COc1cc(/C=N/NC(N)=S)ccc1OCC(=O)Nc1ccc(C)c(C)c1 [AN-3]
HDAC6 % of inhibition at 100 µM (HDAC6 [2]): -4.0 ± 3.9% Self-fluorescence

O=C(CSc1nc2cc(Cl)c3cccnc3c2o1)c1ccc(O)c(O)c1 [AO-1]
HeLa % of inhibition at 100 μM [1, 5]: 20.7 ± 4.0% | IC50 (HDAC4): 73.5 ± 6 µM | inhibition at 100 µM (HDAC6 [2]): 66.1 ± 6.9% | selectivity index (SI) with respect to HDAC2 (HDAC6 [2]; HDAC6 versus HDAC2): > 50 | IC50 (HDAC6 [2]): 16.9 ± 4.9 µM | IC50 (HDAC2): > 1000 µM | IC50 (HDAC8): 35.1 ± 1.1 µM

Cc1cccc(Cn2nnc3c(=O)n(CC(=O)Nc4ccc(S(N)(=O)=O)cc4)cnc32)c1 [AO-2]
HDAC6 % of inhibition at 100 µM (HDAC6 [2]): -3.3 ± 5.4%

Cc1cc2ccccc2n2c(SCC(=O)Nc3ccc(S(N)(=O)=O)cc3)nnc12 [AQ-1]
HDAC6 % of inhibition at 100 µM (HDAC6 [2]): -16.4 ± 9.3% | solubility remark in HDAC6 screening [3]: Solubility issues

C=CCn1c(SCC(=O)Nc2ccc(S(N)(=O)=O)cc2)nnc1-c1sc(N)nc1C [AS-1]
HDAC6 % of inhibition at 100 µM (HDAC6 [2]): -1.8 ± 11.1%

O=C(NO)c1ccc(C(=O)NCCc2ccccc2)cc1 [CHEMBL2333340]
Isoform selectivity (ratio) HDAC2/HDAC6 (HDAC6 [4]): 151.75 | Isoform selectivity (ratio) HDAC4/HDAC6 (HDAC6 [4]): 8332.5 | Isoform selectivity (ratio) HDAC8/HDAC6 (HDAC6 [4]): 287.5

Cn1cccc1C(=O)N1CCc2cc(C(=O)NO)ccc2C1 [CHEMBL2431901]
Isoform selectivity (ratio) HDAC2/HDAC6 (HDAC6 [4]): 1388.9 | Isoform selectivity (ratio) HDAC4/HDAC6 (HDAC6 [4]): 1388.9 | Isoform selectivity (ratio) HDAC8/HDAC6 (HDAC6 [4]): 58.33

Cn1cccc1C(=O)N1Cc2ccc(C(=O)NO)cc2C1 [CHEMBL2431906]
Isoform selectivity (ratio) HDAC2/HDAC6 (HDAC6 [4]): 169.2 | Isoform selectivity (ratio) HDAC4/HDAC6 (HDAC6 [4]): 84.6
